# Tests used:
# Assay type in all cases: in vivo
# [1] = test system: chickweed (Stellaria media); test: Test C postemergence; conditions: for Chickweed plant response rating: scale 0 to 100 (0 no effect, 100 complete control); for Plant response rating, Chickweed: scale 0 to 100
# In short: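 Test compounds, formulated in a non-phytotoxic solvent mix with surfactant, were applied to freshly planted seeds and, at the same time, to emerged plants at 1- to 4-leaf stage (2 to 18 cm). After 12 to 14 days in the greenhouse, response was scored visually versus controls, 0 = no effect, 100 = complete control.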
# [2] = test system: yellow nutsedge (Cyperus esculentus); test: Test C pre/postemergence; conditions: for Nutsedge, Yellow plant response rating: scale 0 to 100 (0 no effect, 100 complete control)
# Source text: (§1) Seeds or nutlets of plant species selected from bermudagrass (Cynodon dactylon), Surinam grass (Brachiaria decumbens), cocklebur (Xanthium strumarium), corn (Zea mays), crabgrass (Digitaria sanguinalis), woolly cupgrass (Eriochloa villosa), giant foxtail (Setaria faberii), goosegrass (Eleusine indica), johnsongrass (Sorghum halepense), kochia (Kochia scoparia), lambsquarters (Chenopodium album), morningglory (Ipomoea coccinea), eastern black nightshade (Solanum ptycanthum), yellow nutsedge (Cyperus esculentus), pigweed (Amaranthus retroflexus), common ragweed (Ambrosia elatior), soybean (Glycine max), common (oilseed) sunflower (Helianthus annuus), and velvetleaf (Abutilon theophrasti) were planted and treated preemergence with test chemicals formulated in a non-phytotoxic solvent mixture which included a surfactant.
# (§2) At the same time, plants selected from these crop and weed species and also winter barley (Hordeum vulgare), blackgrass (Alopecurus myosuroides), canarygrass (Phalaris minor), chickweed (Stellaria media), downy brome (Bromus tectorum), green foxtail (Setaria viridis), Italian ryegrass (Lolium multiflorum), wheat (Triticum aestivum), wild oat (Avena fatua) and windgrass (Apera spica-venti) were treated with postemergence applications of some of the test chemicals formulated in the same manner. Plants ranged in height from 2 to 18 cm (1- to 4-leaf stage) for postemergence treatments. Plant species in the flooded paddy test consisted of rice (Oryza sativa), umbrella sedge (Cyperus difformis), duck salad (Heteranthera limosa) and barnyardgrass (Echinochloa crus-galli) grown to the 2-leaf stage for testing. Treated plants and controls were maintained in a greenhouse for 12 to 14 days, after which time all species were compared to controls and visually evaluated. Plant response ratings, summarized in Table C, are based on a scale of 0 to 100 where 0 is no effect and 100 is complete control. A dash (-) response means no test result.
# [3] = test system: giant foxtail (Setaria faberii); test: Test C pre/postemergence; conditions: for Foxtail, Giant plant response rating: scale 0 to 100 (0 no effect, 100 complete control)
# Source text: as §1, §2
# [4] = test system: crabgrass (Digitaria sanguinalis); test: Test C pre/postemergence; conditions: for Crabgrass plant response rating: scale 0 to 100 (0 no effect, 100 complete control)
# Source text: as §1, §2
# [5] = test system: Surinam grass (Brachiaria decumbens); test: Test C pre/postemergence; conditions: for Surinam Grass plant response rating: scale 0 to 100 (0 no effect, 100 complete control)
# Source text: as §1, §2
# [6] = Postemergence, 250 g ai/ha, scale 0 to 100
# [7] = Postemergence, 500 g ai/ha, scale 0 to 100
# [8] = Preemergence, 62 g ai/ha, scale 0 to 100, 0 no effect, 100 complete control
# [9] = Preemergence, 125 g ai/ha, scale 0 to 100
# [10] = Preemergence, 250 g ai/ha, scale 0 to 100
# [11] = Preemergence, 500 g ai/ha, scale 0 to 100
Structure (SMILES),Chickweed plant response rating ([1]; 62 g ai/ha),Chickweed plant response rating ([1]; 125 g ai/ha),"Plant response rating, Chickweed ([1]; 500 g ai/ha)","Nutsedge, Yellow plant response rating ([2]; Postemergence, 62 g ai/ha)","Nutsedge, Yellow plant response rating ([2]; Postemergence, 125 g ai/ha)","Plant response rating, Nutsedge, Yellow [2, 6]","Plant response rating, Nutsedge, Yellow [2, 7]","Foxtail, Giant plant response rating ([3]; Postemergence, 62 g ai/ha)","Foxtail, Giant plant response rating ([3]; Postemergence, 125 g ai/ha)","Plant response rating, Foxtail, Giant [3, 6]","Plant response rating, Foxtail, Giant [3, 7]","Crabgrass plant response rating ([4]; Postemergence, 62 g ai/ha)","Crabgrass plant response rating ([4]; Postemergence, 125 g ai/ha)","Plant response rating, Crabgrass [4, 6]","Plant response rating, Crabgrass [4, 7]","Surinam Grass plant response rating ([5]; Postemergence, 62 g ai/ha)","Surinam Grass plant response rating ([5]; Postemergence, 125 g ai/ha)","Plant response rating, Surinam Grass [5, 6]","Plant response rating, Surinam Grass [5, 7]",also measured
CN(C)N=Cc1nc(C2CC2)nc(N)c1Br [Compound 50],0,0,20,0,0,0,0,0,0,0,20,60,60,75,80,0,0,0,60,"Plant response rating, Nutsedge, Yellow [2, 8]: 0; Plant response rating, Nutsedge, Yellow [2, 9]: 0; Plant response rating, Nutsedge, Yellow [2, 10]: 0; Plant response rating, Nutsedge, Yellow [2, 11]: 0; Plant response rating, Foxtail, Giant [3, 8]: 0; Plant response rating, Foxtail, Giant [3, 9]: 0; Plant response rating, Foxtail, Giant [3, 10]: 0; Plant response rating, Foxtail, Giant [3, 11]: 70; Plant response rating, Crabgrass [4, 8]: 90; Plant response rating, Crabgrass [4, 9]: 90; Plant response rating, Crabgrass [4, 10]: 95; Plant response rating, Crabgrass [4, 11]: 95; Plant response rating, Surinam Grass [5, 8]: 0; Plant response rating, Surinam Grass [5, 9]: 15; Plant response rating, Surinam Grass [5, 10]: 65; Plant response rating, Surinam Grass [5, 11]: 85"
CC(=O)NN=Cc1nc(C2CC2)nc(N)c1Br [Compound 51],0,0,45,0,0,0,0,0,0,0,0,0,0,0,45,0,0,0,0,"Plant response rating, Chickweed ([1]; 250 g ai/ha): 0"

# From patent US8802597B2, “Herbicidal pyrimidines” (E I du Pont de Nemours and Company, priority 2003, dated 2014)
